Results on eight compounds are retold here after PubChem BioAssay (NCI).

The structures appear in SMILES notation.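 Step 1: Grow cells in 96-well plates. Step 2: Expose to compound for 48 hours at 5 concentrations. Step 3: Interpolate endpoints linearly; if unreached, use highest concentration. The concentration for 50% growth inhibition is given as GI50. TGI: total growth inhibition.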 Some results are limits rather than exact numbers.

Test systems include ACHN renal; DU-145 prostate; HCT-116 colon; HS 578T breast; LOX IMVI melanoma; MOLT-4 leukemia; NCI/ADR-RES ovarian; SF-295 CNS; SNB-75 CNS; U251 CNS.
Holding throughout (assay): NCI-60 cell line screen, 48 h

Take `O=C1C=C(Nc2ccccc2)c2ccccc2C1=O`: the GI50 in the experiment with ACHN renal was 2.56 µM; with DU-145 prostate it was 1.84 µM; in the experiment with HCT-116 colon, 2.15 µM; in the experiment with HS 578T breast, 2.57 µM; with LOX IMVI melanoma it was 1.51 µM; in the experiment with MOLT-4 leukemia, 2.87 µM. The GI50 in the experiment with NCI/ADR-RES ovarian is 2.48 µM; in the experiment on SF-295 CNS, 1.9 µM; with SNB-75 CNS, 1.32 µM; in the experiment on U251 CNS, 1.8 µM. The TGI in the experiment with ACHN renal was 7.88 µM; with DU-145 prostate it was 3.29 µM; in the experiment with HCT-116 colon it was 5.49 µM; in the experiment on HS 578T breast it was 6.32 µM; with LOX IMVI melanoma it was 3.17 µM; in the experiment on MOLT-4 leukemia it was 9.47 µM. Besides, the TGI in the experiment with NCI/ADR-RES ovarian was found to be 8.82 µM; in the experiment on SF-295 CNS, 3.5 µM; in the experiment on SNB-75 CNS, 2.67 µM; in the experiment on U251 CNS, 4.6 µM.
For the compound `CC1CCCCCC(=O)c2c(O)cc(O)cc2CC(=O)O1` (centres undefined), the TGI with ACHN renal, in the experiment with DU-145 prostate, in the experiment on HCT-116 colon, in the experiment on HS 578T breast, with LOX IMVI melanoma and in the experiment with MOLT-4 leukemia was over 100 µM throughout. The TGI in the experiment on NCI/ADR-RES ovarian, in the experiment with SF-295 CNS, with SNB-75 CNS and in the experiment on U251 CNS was over 100 µM throughout.
`COC(=O)[C@@H](C)C[C@H](Cc1ccccc1)NC(=O)c1nc([C@@H](C[C@H](C(C)C)N(C)C(=O)[C@@H](NC(=O)[C@H]2C[C@H](O)CCN2C)C(C)C)OC(C)=O)sc1C(C)C`: the GI50 in the experiment on ACHN renal was 0.101 µM; in the experiment on DU-145 prostate, 0.00395 µM; with HCT-116 colon, 0.004 µM; in the experiment with HS 578T breast it was 0.0122 µM; with LOX IMVI melanoma, 0.00437 µM; with MOLT-4 leukemia, 0.0117 µM. For the same compound, the GI50 is 2.29 µM with NCI/ADR-RES ovarian, 0.0164 µM in the experiment with SF-295 CNS, 0.00462 µM with SNB-75 CNS and 0.0075 µM with U251 CNS. Moreover, the TGI was over 11.1 µM in the experiment on ACHN renal; 3.88 µM in the experiment on HCT-116 colon; over 8.26 µM in the experiment with HS 578T breast; over 5.38 µM with LOX IMVI melanoma; over 11.1 µM in the experiment on MOLT-4 leukemia; over 11.1 µM in the experiment on NCI/ADR-RES ovarian. In addition, the TGI with SF-295 CNS was over 11.1 µM; with SNB-75 CNS, 3.85 µM; with U251 CNS it was over 11.1 µM.
With `COC(=O)c1c2c(c(C)[n+]([O-])c1C)C(=O)C(NCc1ccc(OC)cc1)=CC2=O`, the GI50 is 2.35 µM with ACHN renal; 3.02 µM in the experiment with DU-145 prostate; 2.17 µM with HCT-116 colon; 3.81 µM in the experiment with HS 578T breast; 2.41 µM with LOX IMVI melanoma; 2.36 µM with MOLT-4 leukemia. Further, the GI50 with NCI/ADR-RES ovarian is 2.42 µM; in the experiment with SF-295 CNS it was 1.79 µM; with SNB-75 CNS it was 3.5 µM; in the experiment on U251 CNS, 2.57 µM. Moreover, the TGI is 9.11 µM in the experiment on ACHN renal; 10.2 µM in the experiment with DU-145 prostate; 7.13 µM in the experiment with HCT-116 colon; 36.6 µM in the experiment on HS 578T breast; 7.3 µM in the experiment with LOX IMVI melanoma; 6.63 µM with MOLT-4 leukemia. Further, the TGI turned out to be 7.49 µM in the experiment on NCI/ADR-RES ovarian, 5.09 µM in the experiment on SF-295 CNS, 14.3 µM in the experiment with SNB-75 CNS and 8.82 µM in the experiment on U251 CNS.
With `Cn1ncnc1[C@@H]1c2n[nH]c(=O)c3cc(F)cc(c23)N[C@H]1c1ccc(F)cc1`, the GI50 in the experiment with ACHN renal, in the experiment with DU-145 prostate, in the experiment on HCT-116 colon, with HS 578T breast, with LOX IMVI melanoma and in the experiment on MOLT-4 leukemia was over 100 µM throughout. Moreover, the GI50 in the experiment on NCI/ADR-RES ovarian and in the experiment on SNB-75 CNS was over 100 µM in each case. For the same compound, the TGI with ACHN renal, in the experiment with DU-145 prostate, in the experiment on HCT-116 colon, in the experiment on HS 578T breast, in the experiment with LOX IMVI melanoma and with MOLT-4 leukemia was over 100 µM each time. The TGI with NCI/ADR-RES ovarian and in the experiment on SNB-75 CNS was over 100 µM throughout.
Regarding `CC1=C(CCCOC(=O)[C@H](N)CC(C)C)C2=C(C)C3(CC3)[C@@](C)(O)C(=O)C2=C1`, the GI50 with DU-145 prostate was 0.392 µM; in the experiment on HCT-116 colon, 1.7 µM; in the experiment on HS 578T breast, 5.3 µM; with LOX IMVI melanoma, 2.42 µM; in the experiment with MOLT-4 leukemia, 24.6 µM; in the experiment with NCI/ADR-RES ovarian it was 2.14 µM. The GI50 is 2.19 µM in the experiment on SF-295 CNS, 1.34 µM in the experiment on SNB-75 CNS and 2.53 µM in the experiment on U251 CNS. The TGI in the experiment on DU-145 prostate is over 100 µM; in the experiment with HCT-116 colon, 5.91 µM; in the experiment on HS 578T breast it was 43.8 µM; in the experiment with LOX IMVI melanoma it was 8.9 µM; in the experiment with MOLT-4 leukemia, over 100 µM; in the experiment on NCI/ADR-RES ovarian it was over 38.8 µM. Moreover, the results for the TGI in the experiment on SF-295 CNS, in the experiment on SNB-75 CNS and with U251 CNS were over 31.2 µM, 3.05 µM and 13.7 µM, respectively.
Turning to `C=CCC1(O)c2ccccc2C(=O)c2c(OCC(=O)OCC)ccc(OCC(=O)OCC)c21` (centres undefined), the GI50 was over 100 µM with ACHN renal; over 100 µM with DU-145 prostate; over 100 µM in the experiment on HCT-116 colon; over 100 µM with HS 578T breast; over 100 µM in the experiment with LOX IMVI melanoma; 51 µM in the experiment on MOLT-4 leukemia. The GI50 in the experiment with NCI/ADR-RES ovarian was over 100 µM; in the experiment with SF-295 CNS, over 100 µM; with U251 CNS, 81 µM. Also, the TGI in the experiment on ACHN renal, with DU-145 prostate, with HCT-116 colon, with HS 578T breast, in the experiment with LOX IMVI melanoma and with MOLT-4 leukemia was over 100 µM throughout. In addition, the TGI in the experiment with NCI/ADR-RES ovarian, in the experiment on SF-295 CNS and in the experiment with U251 CNS was over 100 µM throughout.
As for `COc1cc(/C=C2\CC3C4CC=C5CC(OC(C)=O)CC[C@]5(C)C4CC[C@]3(C)C2=O)ccc1OCCN1CCCC1` (some centres undefined), the GI50 was 5.52 µM with ACHN renal; 13.6 µM in the experiment with DU-145 prostate; 1.52 µM in the experiment with HCT-116 colon; 20 µM in the experiment on HS 578T breast; 0.248 µM with LOX IMVI melanoma; 1.87 µM in the experiment with MOLT-4 leukemia. The figures for the GI50 with NCI/ADR-RES ovarian, with SF-295 CNS and in the experiment on U251 CNS were 12 µM, 4.8 µM and 4.2 µM, respectively. In addition, the TGI with ACHN renal is 17.9 µM; in the experiment on DU-145 prostate, 26.6 µM; in the experiment on HCT-116 colon it was 3.14 µM; in the experiment on HS 578T breast, 42.7 µM; with LOX IMVI melanoma, 2.55 µM; with MOLT-4 leukemia, 8.5 µM. Besides, the values for the TGI in the experiment with NCI/ADR-RES ovarian, in the experiment on SF-295 CNS and with U251 CNS were 24.9 µM, 11.8 µM and 14.7 µM, respectively.
